Assay results reported in patent US20240360134A1, “PYRAZOLOPYRIMIDINES AND THEIR USES AS PDGFR INHIBITORS” (priority 2021, published 2024).
Like-named read-outs stand apart in the source and are kept apart here.

Assays:
[1] = biological target: Tb-labeled inactive PDGFRβ (Homo sapiens (Human), UniProt P09619); experiment: biochemical; assay type: binding
[2] = biological target: His6-TEV-PDGFRβ (557-1016) (Homo sapiens (Human), UniProt P09619); experiment: PDGFRβ HTRF Assay; assay type: biochemical
Chain of His6-TEV-PDGFRβ (557-1016) (P09619 whole entry, looked up): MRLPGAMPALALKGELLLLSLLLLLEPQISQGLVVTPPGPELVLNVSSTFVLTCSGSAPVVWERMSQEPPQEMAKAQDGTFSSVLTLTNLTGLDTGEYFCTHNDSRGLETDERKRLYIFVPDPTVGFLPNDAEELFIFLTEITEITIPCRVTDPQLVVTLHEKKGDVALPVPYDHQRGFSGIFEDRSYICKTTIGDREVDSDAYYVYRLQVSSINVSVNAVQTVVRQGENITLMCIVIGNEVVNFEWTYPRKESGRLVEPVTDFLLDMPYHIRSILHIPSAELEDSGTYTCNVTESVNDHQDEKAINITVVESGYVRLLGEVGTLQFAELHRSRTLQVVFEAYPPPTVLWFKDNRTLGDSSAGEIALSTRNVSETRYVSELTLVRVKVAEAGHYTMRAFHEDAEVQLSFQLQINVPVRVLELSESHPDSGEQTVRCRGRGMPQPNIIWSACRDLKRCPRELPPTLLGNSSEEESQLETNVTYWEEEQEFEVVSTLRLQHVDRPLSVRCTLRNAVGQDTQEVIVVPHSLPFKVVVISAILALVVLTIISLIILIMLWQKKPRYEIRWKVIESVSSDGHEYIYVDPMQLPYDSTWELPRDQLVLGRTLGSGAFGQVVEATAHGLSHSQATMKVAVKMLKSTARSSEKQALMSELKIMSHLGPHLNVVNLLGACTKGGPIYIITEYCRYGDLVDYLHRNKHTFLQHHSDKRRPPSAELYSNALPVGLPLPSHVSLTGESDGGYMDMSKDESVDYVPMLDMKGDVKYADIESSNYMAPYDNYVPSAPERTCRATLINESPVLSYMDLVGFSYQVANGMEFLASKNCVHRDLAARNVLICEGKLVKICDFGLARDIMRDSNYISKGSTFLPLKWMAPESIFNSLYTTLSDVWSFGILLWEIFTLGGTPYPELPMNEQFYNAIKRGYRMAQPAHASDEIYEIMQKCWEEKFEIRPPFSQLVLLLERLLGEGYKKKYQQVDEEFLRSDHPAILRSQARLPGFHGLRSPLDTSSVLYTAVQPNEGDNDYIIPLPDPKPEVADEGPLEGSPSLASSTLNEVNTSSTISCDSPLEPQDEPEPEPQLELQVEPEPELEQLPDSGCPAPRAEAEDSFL
Method: Instrumentation: a. Compound liquid handling: LabCyte Echo; b. Reagent liquid handling: Thermo Scientific Multidrop Combi; c. BMG PHERAStar multilabel plate reader.
Protein Reagent: His6-TEV-PDGFRβ Protein Prep prepared at Accelagen.
Assay buffer stock solution, contains 50 mM Hepes, 10 mM MgCl2, 1 mM EGTA, and 0.01% Brij-35, 0.01% ovalbumin, 2 mM DTT at pH 7.5, in molecular biology grade water. Store at room temperature.
Assay buffer. Dilute 5× Kinase buffer 5-fold with molecular biology grade water and add DTT to 2 mM and ovalbumin to 0.1 mg/mL (or 0.01%).
2× protein solution. Make a working solution of […] PDGFRβ in assay buffer. Keep on ice until use to maintain enzyme stability.
2× substrate solution. Make a working solution of 1.6 mM ATP and 1 μM TK-substrate biotin peptide in assay buffer. 3× quench/detection solution.
Step 2. PDGFRβ E+I pre-incubation: Add 2 μL 2× protein solution to columns 1-24 using the Multidrop Combi. Centrifuge at 1000 rpm for 1 min. Incubate 30 min at RT
Step 2. Enzymatic reaction: Add 2 μL substrate solution to columns 1-24 to initiate the reaction using the Multidrop Combi; cover/seal the assay plate to reduce evaporation. Centrifuge at 1000 rpm for 1 min. Incubate at room temperature for 3 hours.
Final concentrations of components in PDGFRp cascade assay:
0.5 μM TK-substrate biotin peptide
Step 3. Quench/Detection: Add 2 μl 3× quench/detection solution to columns 1-24 using the Multidrop Combi; cover/seal the plate. Centrifuge 1 min 1000 rpm. Incubate at RT for 60 min.
HTRF ratio values calculated by the instrument (Ratio is acceptor counts/donor counts*10,000) is exported from the plate reader and used in data analysis. The exported data will be used to calculate 1) compound activity and 2) assay statistics. […] Assay statistics can include Robust Z′ and Signal to Background.
% Inhibition Calculation: Percent inhibition will be calculated for sample wells based on the equation: […]
IC50 Calculation: For IC50 determination, full 11-point dose response data will be processed using the following equation: […]

[3] = biological target: VEGFR2, unphosphorylated (Homo sapiens (Human), UniProt P35968); experiment: VEGFR ADP GLO assay; assay type: biochemical; conditions: 5 nM VEGFR2, 1.2 mM ATP, 1 mg/mL Srctide, 180 min
Chain of VEGFR2, unphosphorylated (P35968 whole entry, looked up): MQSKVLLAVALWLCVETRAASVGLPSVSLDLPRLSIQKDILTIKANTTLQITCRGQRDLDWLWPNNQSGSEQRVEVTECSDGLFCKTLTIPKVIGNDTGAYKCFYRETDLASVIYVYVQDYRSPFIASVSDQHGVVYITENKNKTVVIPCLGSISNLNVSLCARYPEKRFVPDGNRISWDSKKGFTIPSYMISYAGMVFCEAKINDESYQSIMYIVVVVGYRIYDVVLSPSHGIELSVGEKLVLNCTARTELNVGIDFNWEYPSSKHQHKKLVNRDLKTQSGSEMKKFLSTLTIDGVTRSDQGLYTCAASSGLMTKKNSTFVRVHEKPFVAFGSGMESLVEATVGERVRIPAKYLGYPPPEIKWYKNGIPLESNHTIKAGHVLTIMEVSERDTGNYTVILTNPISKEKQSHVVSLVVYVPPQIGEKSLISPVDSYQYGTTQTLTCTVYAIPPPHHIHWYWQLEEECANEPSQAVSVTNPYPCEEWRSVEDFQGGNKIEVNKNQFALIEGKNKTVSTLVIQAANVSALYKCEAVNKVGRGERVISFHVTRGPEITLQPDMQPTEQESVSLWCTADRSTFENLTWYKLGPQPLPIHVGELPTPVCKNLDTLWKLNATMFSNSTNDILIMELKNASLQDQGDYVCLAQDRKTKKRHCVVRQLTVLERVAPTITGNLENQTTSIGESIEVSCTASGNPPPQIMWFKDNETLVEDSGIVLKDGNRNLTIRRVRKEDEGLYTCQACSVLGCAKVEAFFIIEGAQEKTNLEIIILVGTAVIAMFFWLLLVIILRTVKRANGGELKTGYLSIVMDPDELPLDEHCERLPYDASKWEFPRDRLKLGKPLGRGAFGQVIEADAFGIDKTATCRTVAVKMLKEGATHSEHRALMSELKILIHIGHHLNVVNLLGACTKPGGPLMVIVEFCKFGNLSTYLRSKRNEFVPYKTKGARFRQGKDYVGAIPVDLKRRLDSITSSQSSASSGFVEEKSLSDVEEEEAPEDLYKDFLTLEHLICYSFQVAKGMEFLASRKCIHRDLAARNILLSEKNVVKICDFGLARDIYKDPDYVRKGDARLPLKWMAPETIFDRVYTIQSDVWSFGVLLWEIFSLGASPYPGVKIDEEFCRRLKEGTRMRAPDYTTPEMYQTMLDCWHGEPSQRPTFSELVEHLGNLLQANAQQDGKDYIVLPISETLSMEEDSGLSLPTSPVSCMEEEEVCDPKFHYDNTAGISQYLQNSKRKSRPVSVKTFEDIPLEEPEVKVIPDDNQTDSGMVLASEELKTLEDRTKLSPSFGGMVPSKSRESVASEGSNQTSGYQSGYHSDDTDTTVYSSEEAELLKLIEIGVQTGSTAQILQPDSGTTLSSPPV
In short: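 Unphosphorylated kinase (10 nM 2× solution) pre-incubated 30 min at RT with compounds (11-point, 3-fold, top 10 µM), then reacted 180 min with srctide and ATP (2×: 2 mg/mL, 2.4 mM) in HEPES pH 7.5 buffer. ADP read by luminescence. IC50 from 4-parameter fit, normalized to DMSO and 1 µM TAK-593.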

[4] = biological target: PDGFRβ (Rattus norvegicus (Rat), UniProt Q05030); experiment: PDGFRβ Cellular Assay (PDGFRb P-Y751 HTRF, PDGF-BB stimulated A10 cells); assay type: cell-based
Chain of PDGFRβ (Q05030 whole entry, looked up): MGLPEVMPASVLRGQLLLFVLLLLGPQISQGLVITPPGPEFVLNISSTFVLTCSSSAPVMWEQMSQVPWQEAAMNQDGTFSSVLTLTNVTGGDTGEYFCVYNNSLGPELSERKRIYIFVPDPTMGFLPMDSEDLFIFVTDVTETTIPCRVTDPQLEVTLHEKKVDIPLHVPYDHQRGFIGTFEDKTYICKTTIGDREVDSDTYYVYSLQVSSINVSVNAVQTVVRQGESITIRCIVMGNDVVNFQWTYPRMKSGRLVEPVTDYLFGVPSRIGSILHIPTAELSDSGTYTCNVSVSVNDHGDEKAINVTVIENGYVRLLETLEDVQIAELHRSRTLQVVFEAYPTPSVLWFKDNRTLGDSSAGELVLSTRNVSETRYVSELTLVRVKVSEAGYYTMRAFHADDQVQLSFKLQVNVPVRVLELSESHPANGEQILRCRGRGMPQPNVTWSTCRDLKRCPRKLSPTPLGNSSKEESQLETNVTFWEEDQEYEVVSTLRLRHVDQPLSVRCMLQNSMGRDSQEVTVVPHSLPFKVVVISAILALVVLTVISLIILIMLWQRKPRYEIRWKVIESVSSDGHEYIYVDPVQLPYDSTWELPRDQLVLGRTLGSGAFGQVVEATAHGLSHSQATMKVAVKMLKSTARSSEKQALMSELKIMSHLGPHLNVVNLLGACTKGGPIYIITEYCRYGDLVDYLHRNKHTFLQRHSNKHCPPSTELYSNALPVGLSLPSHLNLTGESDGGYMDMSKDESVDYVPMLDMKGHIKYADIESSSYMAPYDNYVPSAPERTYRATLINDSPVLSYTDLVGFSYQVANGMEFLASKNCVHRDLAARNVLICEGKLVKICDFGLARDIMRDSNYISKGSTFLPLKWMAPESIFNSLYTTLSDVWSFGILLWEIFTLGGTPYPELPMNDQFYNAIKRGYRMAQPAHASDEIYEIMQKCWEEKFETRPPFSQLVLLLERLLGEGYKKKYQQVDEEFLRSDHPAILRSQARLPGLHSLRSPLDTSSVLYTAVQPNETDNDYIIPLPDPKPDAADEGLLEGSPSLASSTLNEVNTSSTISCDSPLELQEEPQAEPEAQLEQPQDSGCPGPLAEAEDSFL
In short: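 Rat A10 cells plated overnight were treated with compound for 3 h, stimulated with rat PDGF-BB (working stock 100 ng/mL in 10% FBS medium) for 10 min, then lysed.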

[5] = 800 μM ATP, 0.5 μM TK-substrate biotin peptide, 30 min pre-incubation, 3 hours reaction, read-out: PDGFR HTRF IC50
[6] = A10 cells, 3 hours compound, 15 ng/mL PDGFbb for 10 minutes, read-out: PDGFR Cellular IC50

Chain of Tb-labeled inactive PDGFRβ (P09619 whole entry, looked up): as the sequence (P09619 whole entry, looked up) above

For `Cc1ncc(C(=O)NCCN2CCCC2(C)C)cc1Nc1nn(C)c2nc(Nc3cccc(C4(C(=O)O)CC4)c3)ncc12` [Example 38, 1-(3-((3-((5-((2-(2,2-dimethylpyrrolidin-1-yl)ethyl)carbamoyl)-2-methylpyridin-3-yl)amino)-1-methyl-1H-pyrazolo[3,4-d]pyrimidin-6-yl)amino)phenyl)cyclopropanecarboxylic acid], which IC50 ([1]; read-out: PDGFR Lantha IC50) is on record?
Its IC50 is 15.3 nM.

And the IC50 [2, 5]?
The IC50 was 1.59 nM.

And the IC50 [3]?
Its IC50 is 715 nM.

What about the IC50 [4, 6] of the same compound?
The IC50 was greater than 3000 nM.

`Cc1ncc(C(=O)NCCN2CCOCC23CC3)cc1Nc1nn(C)c2nc(Nc3cncnc3)ncc12` [Example 13, N-(2-(7-oxa-4-azaspiro[2.5]octan-4-yl)ethyl)-6-methyl-5-((1-methyl-6-(pyrimidin-5-ylamino)-1H-pyrazolo[3,4-d]pyrimidin-3-yl)amino)nicotinamide] was tested. Which IC50 ([1]; read-out: PDGFR Lantha IC50) did it give?
Its IC50 is 12.8 nM.

What about the IC50 [2, 5] of the same compound?
The IC50 was 1.55 nM.

What about the IC50 [3] of the same compound?
Its IC50 is greater than 7500 nM.

What about the IC50 [4, 6] of the same compound?
The IC50 was 152 nM.

What does the source list for `Cc1ncc(C(=O)NCCN2CCCC2(C)C)cc1Nc1nn(C)c2nc(Nc3ccnn3C)ncc12` [Example 157, N-(2-(2,2-dimethylpyrrolidin-1-yl)ethyl)-6-methyl-5-((1-methyl-6-((1-methyl-1H-pyrazol-5-yl)amino)-1H-pyrazolo[3,4-d]pyrimidin-3-yl)amino)nicotinamide]?
IC50 ([1]; read-out: PDGFR Lantha IC50): 32.9 nM; IC50 [2, 5]: 3.39 nM; IC50 [3]: > 7500 nM; IC50 [4, 6]: 110 nM

`Cc1ncc(C(=O)NCCC2CCCCC2)cc1Nc1nn(C)c2nc(Nc3ccc(CC(=O)O)nc3)ncc12` [Example 106, 2-(5-((3-((5-((2-cyclohexylethyl)carbamoyl)-2-methylpyridin-3-yl)amino)-1-methyl-1H-pyrazolo[3,4-d]pyrimidin-6-yl)amino)pyridin-2-yl)acetic acid] was tested. Which IC50 [1] did it give?
The IC50 was 3.6 nM.

What about the IC50 [2] of the same compound?
Its IC50 is 0.76 nM.

What about the IC50 [3] of the same compound?
The IC50 was 915 nM.

What about the IC50 [4] of the same compound?
The IC50 was 12.6 nM.

What does the source list for `Cc1ncc(C(=O)NCCN(CCCO)C2CCCC2)cc1Nc1nn(C)c2nc(Nc3cnn(C)c3)ncc12` [Example 96, N-(2-(cyclopentyl(3-hydroxypropyl)amino)ethyl)-6-methyl-5-((1-methyl-6-((1-methyl-1H-pyrazol-4-yl)amino)-1H-pyrazolo[3,4-d]pyrimidin-3-yl)amino)nicotinamide]?
IC50 ([1]; read-out: PDGFR Lantha IC50): 2.8 nM; IC50 [2, 5]: 0.43 nM; IC50 [3]: > 7500 nM; IC50 [4, 6]: 139 nM

For `Cc1ncc(C(=O)NCCN2CCCC23CC3)cc1Nc1nn(C)c2nc(Nc3cncnc3)ncc12` [Example 57, N-(2-(4-azaspiro[2.4]heptan-4-yl)ethyl)-6-methyl-5-((1-methyl-6-(pyrimidin-5-ylamino)-1H-pyrazolo[3,4-d]pyrimidin-3-yl)amino)nicotinamide], which IC50 ([1]; read-out: PDGFR Lantha IC50) is on record?
The IC50 was 5.6 nM.

And the IC50 [2, 5]?
The IC50 was 0.97 nM.

What about the IC50 [3] of the same compound?
The IC50 was greater than 7500 nM.

What about the IC50 [4, 6] of the same compound?
The IC50 was 15.6 nM.

How did the IC50 ([1]; read-out: PDGFR Lantha IC50) turn out when `Cc1ncc(C(=O)NCCN2CCCC2(C)C)cc1Nc1nn(C)c2nc(Nc3ccnc(N4CCOCC4)c3)ncc12` [Example 101, N-(2-(2,2-dimethylpyrrolidin-1-yl)ethyl)-6-methyl-5-((1-methyl-6-((2-morpholinopyridin-4-yl)amino)-1H-pyrazolo[3,4-d]pyrimidin-3-yl)amino)nicotinamide] was run?
The IC50 was 2.2 nM.

What about the IC50 [2, 5] of the same compound?
The IC50 was 0.38 nM.

What about the IC50 [3] of the same compound?
The IC50 was greater than 7500 nM.

What about the IC50 [4, 6] of the same compound?
Its IC50 is 15.5 nM.

What does the source list for `Cn1cc(Nc2ncc3c(Nc4cc(C(=O)NCCN5CCC6(CC6)C5)ccc4F)nn(C)c3n2)cn1` [Example 122, N-(2-(5-azaspiro[2.4]heptan-5-yl)ethyl)-4-fluoro-3-((1-methyl-6-((1-methyl-1H-pyrazol-4-yl)amino)-1H-pyrazolo[3,4-d]pyrimidin-3-yl)amino)benzamide]?
IC50 ([1]; read-out: PDGFR Lantha IC50): 1.2 nM; IC50 [2, 5]: 0.15 nM; IC50 [3]: > 7500 nM; IC50 [4, 6]: 4.6 nM

For `Cc1ncc(NC(=O)CN2CC[C@H](C)C2)cc1Nc1nn(C)c2nc(Nc3cnn(C)c3)ncc12` [Example 140, (S)—N-(6-methyl-5-((1-methyl-6-((1-methyl-1H-pyrazol-4-yl)amino)-1H-pyrazolo[3,4-d]pyrimidin-3-yl)amino)pyridin-3-yl)-2-(3-methylpyrrolidin-1-yl)acetamide], which IC50 ([1]; read-out: PDGFR Lantha IC50) is on record?
Its IC50 is 1.6 nM.

What about the IC50 [2, 5] of the same compound?
Its IC50 is 0.23 nM.

What about the IC50 [3] of the same compound?
Its IC50 is greater than 7500 nM.

And the IC50 [4, 6]?
The IC50 was 2.2 nM.

Which results are given for `CC[C@@H]1CN(CCNC(=O)c2cnc(C)c(Nc3nn(C)c4nc(Nc5ccnc(N6CCC(CCO)CC6)c5)ncc34)c2)CCO1` [Example 113, (R)—N-(2-(2-ethylmorpholino)ethyl)-5-((6-((2-(4-(2-hydroxyethyl)piperidin-1-yl)pyridin-4-yl)amino)-1-methyl-1H-pyrazolo[3,4-d]pyrimidin-3-yl)amino)-6-methylnicotinamide]?
IC50 ([1]; read-out: PDGFR Lantha IC50): 6.8 nM; IC50 [2, 5]: 0.94 nM; IC50 [3]: > 7500 nM; IC50 [4, 6]: 116 nM

What does the source list for `Cc1ncc(C(=O)NCCN2CCC(C)(C)C2)cc1Nc1nn(C)c2nc(Nc3cnn(C)c3)ncc12` [Example 86, N-(2-(3,3-dimethylpyrrolidin-1-yl)ethyl)-6-methyl-5-((1-methyl-6-((1-methyl-1H-pyrazol-4-yl)amino)-1H-pyrazolo[3,4-d]pyrimidin-3-yl)amino)nicotinamide]?
IC50 ([1]; read-out: PDGFR Lantha IC50): 2.2 nM; IC50 [2, 5]: 0.33 nM; IC50 [3]: > 7500 nM; IC50 [4, 6]: 18.2 nM

How did the IC50 ([1]; read-out: PDGFR Lantha IC50) turn out when `Cc1ncc(C(=O)NCCN2CCCC2(C)C)cc1Nc1nn(C)c2nc(Nc3cncc(C(N)=O)c3)ncc12` [Example 29, 5-((6-((5-carbamoylpyridin-3-yl)amino)-1-methyl-1H-pyrazolo[3,4-d]pyrimidin-3-yl)amino)-N-(2-(2,2-dimethylpyrrolidin-1-yl)ethyl)-6-methylnicotinamide] was run?
The IC50 was 6.6 nM.

And the IC50 [2, 5]?
Its IC50 is 0.8 nM.

What about the IC50 [3] of the same compound?
Its IC50 is greater than 10000 nM.

What about the IC50 [4, 6] of the same compound?
The IC50 was 5330 nM.

How did the IC50 ([1]; read-out: PDGFR Lantha IC50) turn out when `COCCn1cc(Nc2ncc3c(Nc4cc(NC(=O)CN5CCC6(CC6)C5)cnc4C)nn(C)c3n2)cn1` [Example 124, N-(5-((6-((1-(2-methoxyethyl)-1H-pyrazol-4-yl)amino)-1-methyl-1H-pyrazolo[3,4-d]pyrimidin-3-yl)amino)-6-methylpyridin-3-yl)-2-(5-azaspiro[2.4]heptan-5-yl)acetamide] was run?
Its IC50 is 1.6 nM.

What about the IC50 [2, 5] of the same compound?
The IC50 was 0.35 nM.

What about the IC50 [3] of the same compound?
The IC50 was 4930 nM.

And the IC50 [4, 6]?
Its IC50 is 4.3 nM.

Which results are given for `Cc1ncc(NC(=O)CN2CCCC2)cc1Nc1nn(C)c2nc(Nc3cnn(C)c3)ncc12` [Example 138, N-(6-methyl-5-((1-methyl-6-((1-methyl-1H-pyrazol-4-yl)amino)-1H-pyrazolo[3,4-d]pyrimidin-3-yl)amino)pyridin-3-yl)-2-(pyrrolidin-1-yl)acetamide]?
IC50 ([1]; read-out: PDGFR Lantha IC50): 2.1 nM; IC50 [2, 5]: 0.24 nM; IC50 [3]: > 7500 nM; IC50 [4, 6]: 3.2 nM

How did the IC50 ([1]; read-out: PDGFR Lantha IC50) turn out when `Cn1cc(Nc2ncc3c(Nc4cc(C(=O)NCCN5CCCC5(C)C)ccc4F)nn(C)c3n2)cn1` [Example 121, N-(2-(2,2-dimethylpyrrolidin-1-yl)ethyl)-4-fluoro-3-((1-methyl-6-((1-methyl-1H-pyrazol-4-yl)amino)-1H-pyrazolo[3,4-d]pyrimidin-3-yl)amino)benzamide] was run?
The IC50 was 1.3 nM.

And the IC50 [2, 5]?
The IC50 was 0.2 nM.

What about the IC50 [3] of the same compound?
The IC50 was greater than 7500 nM.

And the IC50 [4, 6]?
Its IC50 is 3.6 nM.

Which results are given for `COCCn1cc(Nc2ncc3c(Nc4cc(NC(=O)CN5CCC56CCC6)cnc4C)nn(C)c3n2)cn1` [Example 130, N-(5-((6-((1-(2-methoxyethyl)-1H-pyrazol-4-yl)amino)-1-methyl-1H-pyrazolo[3,4-d]pyrimidin-3-yl)amino)-6-methylpyridin-3-yl)-2-(1-azaspiro[3.3]heptan-1-yl)acetamide]?
IC50 ([1]; read-out: PDGFR Lantha IC50): 1.5 nM; IC50 [2, 5]: 0.37 nM; IC50 [3]: > 7500 nM; IC50 [4, 6]: 4.7 nM

`COCCn1cc(Nc2ncc3c(Nc4cc(NC(=O)CN5CC6CCC5CC6)cnc4C)nn(C)c3n2)cn1` [Example 127, 2-(2-azabicyclo[2.2.2]octan-2-yl)-N-(5-((6-((1-(2-methoxyethyl)-1H-pyrazol-4-yl)amino)-1-methyl-1H-pyrazolo[3,4-d]pyrimidin-3-yl)amino)-6-methylpyridin-3-yl)acetamide] was tested. Which IC50 ([1]; read-out: PDGFR Lantha IC50) did it give?
The IC50 was 1.4 nM.

What about the IC50 [2, 5] of the same compound?
Its IC50 is 0.27 nM.

What about the IC50 [3] of the same compound?
The IC50 was 6490 nM.

And the IC50 [4, 6]?
Its IC50 is 2.6 nM.
